Columns and labels:
Assay type in all cases: in vivo
[1] = test system: Amaranthus viridis (AMAVI); assay: B2 drilled field trial Brazil, post-emergence, AMAVI; conditions: 100=total damage, 0=no damage; for AMAVI 7DAA Observed: 7 days after application; for AMAVI 30 DAA Observed: 30 days after application
Procedure: (§1) Seeds of a variety of test species were used in drilled field trials to look at the control of important weed species present in corn crops as well as the effect on soybean (a volunteer crop in corn). Trials were carried out in Brazil in the summer season.
(§2) Plot size was 10-12 m^2, and two replicates were carried out per treatment. Plants were treated post-emergence at the 4 leaf stage. Fungicides and insecticides were used as necessary for plant health. The test was evaluated at 7 and 30 days after application (Amaranthus viridis (AMAVI), Bidens pilosa (BIDPI), Euphorbia heterophylla (EPPHL)) and 9 and 37 days after application (Brachiaria plantaginea (BRAPL) and soybean (Glycine max GLXMA) with 100=total damage to plant and 0=no damage to plant.
(§3) Expected results were calculated using the Colby Formula.

[2] = test system: Amaranthus retroflexus (AMARE); assay: B3 drilled field trial Brazil, post-emergence, AMARE; conditions: 28 days after application, 100=total damage, 0=no damage
Procedure: (§4) Seeds of a variety of test species were used in drilled field trials to look at the control of important weed species present in corn crops as well as the effect on soybean (a volunteer crop in corn). Trials were carried out in Brazil in the summer season and the second season.
(§5) Plot size was 10-15 m^2, and two replicates were carried out per treatment. Plants were treated post-emergence between the 2 and 4 leaf stage. Species tested were Amaranthus retroflexus (AMARE), Ipomoea grandifolia (IAQGR), Digitaria horizontalis (DIGHO), Bidens pilosa (BIDPI), Eleusine indica (ELEIN), Brachiaria decumbens (BRADC), Centrus echinatus (CCHEC), Euphorbia heterophylla (EPPHL), Brachiaria plantaginea (BRAPL) and Glycine max (GLXMA; soybean). Fungicides and insecticides were used as necessary for plant health. The test was evaluated at 28 days after application with 100=total damage to plant and 0=no damage to plant.
as §3

[3] = test system: Bidens pilosa (BIDPI); assay: B3 drilled field trial Brazil, post-emergence, BIDPI; conditions: 28 days after application
Procedure: as §4, §5, §3

[4] = test system: Glycine max (GLXMA; soybean); assay: B3 drilled field trial Brazil, post-emergence, soybean; conditions: 28 days after application
Procedure: as §4, §5, §3

[5] = test system: Euphorbia heterophylla (EPPHL); assay: B2 drilled field trial Brazil, post-emergence, EPPHL; conditions: 100=total damage, 0=no damage; for EPPHL 7DAA Observed: 7 days after application; for EPPHL 30 DAA Observed: 30 days after application
Procedure: as §1, §2, §3

[6] = test system: Brachiaria plantaginea (BRAPL); assay: B2 drilled field trial Brazil, post-emergence, BRAPL; conditions: 100=total damage, 0=no damage; for BRAPL 9DAA Observed: 9 days after application; for BRAPL 37 DAA Observed: 37 days after application
Procedure: as §1, §2, §3

[7] = test system: Brachiaria plantaginea (BRAPL); assay: B3 drilled field trial Brazil, post-emergence, BRAPL; conditions: Summer season, 28 days after application
Procedure: as §4, §5, §3

[8] = test system: soybean (Glycine max GLXMA); assay: B2 drilled field trial Brazil, post-emergence, soybean; conditions: 100=total damage, 0=no damage; for GLXMA 9DAA Observed: 9 days after application; for GLXMA 37 DAA Observed: 37 days after application
Procedure: as §1, §2, §3

For `CCOC1C(O)N(c2cc(C(C)(C)C)on2)C(=O)N1C` (stereo not drawn) [Compound 1.4], the “AMAVI 7DAA Observed” value ([1]; 75 g ai/ha) was 10, the “AMAVI 30 DAA Observed” value ([1]; 75 g ai/ha) was 13 and the “AMAVI 7DAA Observed” value ([1]; 100 g ai/ha) was 20. For the same compound, the “AMAVI 30 DAA Observed” value ([1]; 100 g ai/ha) was 20, the “AMAVI 7DAA Observed” value ([1]; 150 g ai/ha) was 40 and the “AMAVI 30 DAA Observed” value ([1]; 150 g ai/ha) was 40. For the same compound, the “AMARE Second season Observed” value ([2]; 50 g ai/ha) was 12, the “AMARE Summer season Observed” value ([2]; 50 g ai/ha) was 73 and the “AMARE Second season Observed” value ([2]; 75 g ai/ha) was 14. For the same compound, the “AMARE Summer season Observed” value ([2]; 75 g ai/ha) was 80, the “AMARE Second season Observed” value ([2]; 100 g ai/ha) was 39 and the “AMARE Summer season Observed” value ([2]; 100 g ai/ha) was 90. For the same compound, the “AMARE Second season Observed” value ([2]; 150 g ai/ha) was 52, the “AMARE Summer season Observed” value ([2]; 150 g ai/ha) was 100 and the “Observed damage (100=total damage to plant, 0=no damage)” value ([3]; Second season, 50 g ai/ha) was 46. The “Observed damage (100=total damage to plant, 0=no damage)” value ([3]; Second season, 75 g ai/ha) was 46, the “Observed damage (100=total damage to plant, 0=no damage)” value ([3]; Second season, 100 g ai/ha) was 48 and the “Observed damage (100=total damage to plant, 0=no damage)” value ([3]; Second season, 150 g ai/ha) was 60. The “Observed damage (100=total damage to plant, 0=no damage)” value ([3]; Summer season, 50 g ai/ha) was 18, the “Observed damage (100=total damage to plant, 0=no damage)” value ([3]; Summer season, 75 g ai/ha) was 38 and the “Observed damage (100=total damage to plant, 0=no damage)” value ([3]; Summer season, 100 g ai/ha) was 28. The “Observed damage (100=total damage to plant, 0=no damage)” value ([3]; Summer season, 150 g ai/ha) was 47, the “Observed damage (100=total damage to plant, 0=no damage)” value ([4]; Second season, 50 g ai/ha) was 44 and the “Observed damage (100=total damage to plant, 0=no damage)” value ([4]; Second season, 75 g ai/ha) was 56. The “Observed damage (100=total damage to plant, 0=no damage)” value ([4]; Second season, 100 g ai/ha) was 79, the “Observed damage (100=total damage to plant, 0=no damage)” value ([4]; Second season, 150 g ai/ha) was 86 and the “Observed damage (100=total damage to plant, 0=no damage)” value ([4]; Summer season, 50 g ai/ha) was 44. The “Observed damage (100=total damage to plant, 0=no damage)” value ([4]; Summer season, 75 g ai/ha) was 49, the “Observed damage (100=total damage to plant, 0=no damage)” value ([4]; Summer season, 100 g ai/ha) was 60 and the “Observed damage (100=total damage to plant, 0=no damage)” value ([4]; Summer season, 150 g ai/ha) was 83. For the same compound, the “EPPHL 7DAA Observed” value ([5]; 75 g ai/ha) was 25, the “EPPHL 30 DAA Observed” value ([5]; 75 g ai/ha) was 18 and the “EPPHL 7DAA Observed” value ([5]; 100 g ai/ha) was 30. The “EPPHL 30 DAA Observed” value ([5]; 100 g ai/ha) was 25, the “EPPHL 7DAA Observed” value ([5]; 150 g ai/ha) was 48 and the “EPPHL 30 DAA Observed” value ([5]; 150 g ai/ha) was 25. The “BRAPL 9DAA Observed” value ([6]; 75 g ai/ha) was 18, the “BRAPL 37 DAA Observed” value ([6]; 75 g ai/ha) was 0 and the “BRAPL 9DAA Observed” value ([6]; 100 g ai/ha) was 15. For the same compound, the “BRAPL 37 DAA Observed” value ([6]; 100 g ai/ha) was 0, the “BRAPL 9DAA Observed” value ([6]; 150 g ai/ha) was 23 and the “BRAPL 37 DAA Observed” value ([6]; 150 g ai/ha) was 0. The “Observed damage (100=total damage to plant, 0=no damage)” value ([7]; 50 g ai/ha) was 13, the “Observed damage (100=total damage to plant, 0=no damage)” value ([7]; 75 g ai/ha) was 34 and the “Observed damage (100=total damage to plant, 0=no damage)” value ([7]; 100 g ai/ha) was 30. For the same compound, the “Observed damage (100=total damage to plant, 0=no damage)” value ([7]; 150 g ai/ha) was 31, the “GLXMA 9DAA Observed” value ([8]; 75 g ai/ha) was 63 and the “GLXMA 37 DAA Observed” value ([8]; 75 g ai/ha) was 45. For the same compound, the “GLXMA 9DAA Observed” value ([8]; 100 g ai/ha) was 55, the “GLXMA 37 DAA Observed” value ([8]; 100 g ai/ha) was 0 and the “GLXMA 9DAA Observed” value ([8]; 150 g ai/ha) was 73.

— patent US20190239509A1, “METHOD OF CONTROLLING PLANTS” (SYNGENTA PARTICIPATIONS AG, priority 2016, published 2019)
